Data published in US8518953B2, “Aminopyrimidines useful as inhibitors of protein kinases” (Vertex Pharmaceuticals Incorporated, priority 2007, dated 2013).

Assays:
[1] = target: T1, GSK3α TYR 279 (Homo sapiens, UniProt P49840); experiment: GSK-3α p-TYR Inhibition Assay (western blotting of Jurkat cells); format: cell-based; conditions: western blot, read-out: GSK3a pTYR 279: IC50
T1 construct: western blotting of Jurkat cells dosed with the compounds; endogenous in cells; host or cells: Jurkat cells
T1 sequence (P49840 whole entry): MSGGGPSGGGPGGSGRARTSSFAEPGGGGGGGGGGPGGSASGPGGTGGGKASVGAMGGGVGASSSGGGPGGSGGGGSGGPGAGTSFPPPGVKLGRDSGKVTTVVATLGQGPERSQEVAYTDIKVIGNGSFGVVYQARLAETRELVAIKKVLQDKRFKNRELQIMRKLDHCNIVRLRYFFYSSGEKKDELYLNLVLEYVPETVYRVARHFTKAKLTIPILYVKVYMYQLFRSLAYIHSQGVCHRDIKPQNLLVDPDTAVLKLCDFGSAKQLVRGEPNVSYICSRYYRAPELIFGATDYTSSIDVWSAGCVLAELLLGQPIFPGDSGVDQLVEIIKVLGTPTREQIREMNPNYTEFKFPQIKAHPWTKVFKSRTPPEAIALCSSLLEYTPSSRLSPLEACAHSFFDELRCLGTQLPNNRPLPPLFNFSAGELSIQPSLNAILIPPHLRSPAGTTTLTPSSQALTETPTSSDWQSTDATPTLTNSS
Method: Compounds are screened for their ability to inhibit the phosphorylation of tyrosine (TYR) residues through the use of western blotting of Jurkat cells dosed with the compounds. The phosphorylation of the specific TYR residues tested are GSK3α TYR 279 and GSK3β TYR 216.
Jurkat cells are seeded at a density of 2×10^5 cells/well in a 12 well dish in starvation media (RPMI+1% FBS+P/S). Following starvation for 16 hours, the compound is dosed into each well at a final DMSO concentration of 0.3% and cells are incubated o/n at 37° C. 5% CO2. The next day, cells are spun down at 1500 rpm, washed with PBS, and lysed in 100 uL Laemli sample buffer with β-mercaptoethanol.
15 microliters (uL) of cell lysates are loaded onto a 10% tris-glycine gel and run at 120 v for 2 hours or until dye front runs off of the gel. The protein is then transferred onto a PVDF membrane at 100 v for 60 min. PBST (PBS containing 0.1% Tween 20, such as 1 ml Tween per 1 L of PBS) is then made up and used for all washes and antibody incubations. The blot is blocked in 5% nonfat milk PBST for one hour.
The primary antibody (GSK-3α/β pTYR 279/216 at 1:1000 dilution Upstate cat#05-413) is then added in […] PBST overnight at 4° C. with gentle rocking. The blot is then washed in PBST for 5 min. This is then repeated 4 times. […]

[2] = tested on: GSK-3α/β pTYR; experiment: pTYR Biomarker Analysis in brains of MCAO rats (Western blot); format: in vivo, rat; conditions: all doses, at the termination of the study, compared to vehicle treated rats
Method: RIPA consists of 0.5 ml 10% SDS, 2.5 ml 10% Sodium Deoxycholate, 0.5 ml NP40, and 46.5 ml PBS. […] 10 mL of lysis buffer (modified RIPA) is added to tissue (1 ml/½ brain) and homogenized on ice. The lysates are then centrifuged at 10000 rpm for 10 min at 4° C. The supernatant is then transferred to a new tube and kept on ice. The supernatant samples are respun at 10000 rpm for 10 min at 4° C. The supernatant is then transferred to a new tube and kept on ice. An aliquot of the supernatant is taken and the protein is measured with the Pierce BCA protein assay kit (cat#23225), using BSA standard curve (do a 1:25 dilution in PBS). The remaining supernatant is diluted to 1 ug/ul with Biorad Laemmli Sample buffer (cat#161-0737) with β-mercaptoethanol added. The samples are boiled for 5 min at 95° C. and spun in a microfuge for 1 minute. The samples are snap frozen on dry ice and stored at −20° C. 10 ug of protein/lane (10 uL) is then loaded and the Western blot is run according to Example 3. Inhibition of GSK-3α/β pTYR is determined by comparing the density of the protein band in samples obtained from animals treated with compound to samples from vehicle treated animals. […] Lysates were analyzed by Western blot (see Example 3) and probed for GSK-3α/β pTYR levels.

[3] = tested on: human umbilical vein endothelial cells (HUVEC); experiment: In Vitro Model of Angiogenesis Using HUVEC and Skin Fibroblasts; format: cell-based; conditions: HUVEC cultures
Excerpt: Compounds are screened for the ability to enhance angiogenesis in human umbilical vein endothelial cells (HUVEC). This method, adapted from Nakatsu et al. Microvas. Res. 2003, describes a protocol that recapitulates the major events essential for new vessel growth: budding, cell migration, cell proliferation, lumen formation, branching, and anastomosis. HUVEC are used between P3 and P4. HUVEC are mixed with dextran coated cytodex 3 micro-carriers (Amersham Pharmacia) at a concentration of 400 HUVEC per bead in 1 ml of EGM-2 (2% FBS) medium (Clonetics). Beads with cells are then shaken gently every 20 min for 4 hr at 37° C. and 5% CO2. After incubating, beads with cells are transferred to a T-25 tissue culture flask and left for 12-16 hr in 5 ml of EGM-2 at 37° C. 5% CO2. The following day beads with cells are washed three times with EGM-2 and re-suspended at a concentration of 200 cell-coated beads/ml in 2.5 mg/ml of fibrinogen (Sigma) with 0.15 U/ml of aprotinin (Sigma) at a pH of 7.4. 500 ul of fibrinogen/bead solution is then added to 0.625 U of thrombin (Sigma) in one well of a 24 well tissue culture plate. Fibrinogen/Bead solution is allowed to clot for 5 min at room temperature and then at 37° C. 5% CO2 for 20 min. 1 ml of EGM-2 with 0.15 U/ml of aprotinin is then added to each well and equilibrated with the fibrin clot for 30 min at 37° C. and 5% CO2. Next, media is removed from the well and replaced with 1 ml of fresh medium. 20,000 skin fibroblasts (SF ATCC Detroit 551) are plated on top of the clot and medium is changed every other day. […] Angiogenesis is scored by quantification of images captured on an inverted microscope at 10× and 20× magnification for vessel length, number of vessels and branches per bead using NIH Image J software. […] YFP positive HUVEC are then cultured as described above and quantification of vessel formation is determined by calculating the area under the threshold fluorescence using NIH Image J software. In both cases, enhanced angiogenesis is determined by comparing compound treated cultures with a DMSO control culture at the same time point.

[4] = concentrations that have been shown to induce β-catenin

- IC50 [1]: < 500 pM
Compound: Cc1nc(-c2ccccc2Cl)nc(Nc2n[nH]c3ncc(F)cc23)c1C [Compound I-1, N-(2-(2-chlorophenyl)-5,6-dimethylpyrimidin-4-yl)-5-fluoro-1H-pyrazolo[3,4-b]pyridin-3-amine]
- GSK-3α/β pTYR signal in the brain [2]: significant reduction in pTYR signal
- vessel and network formation ([3]; 10 nM, 7 days): increase vessel and network formation
- cell proliferation [3, 4]: increased cell proliferation was observed
- vessel formation [3, 4]: vessel formation was inhibited
